Measurements published in US20130203649A1, “INHIBITORS OF TLR SIGNALING BY TARGETING TIR DOMAIN INTERFACES” (UNIVERSITY OF MARYLAND, BALTIMORE, priority 2012, published 2013).
No end group written: not given here.

Columns and labels:
TLR2/TLR1 heterodimer [1] = biological target: T1, TLR2/TLR1 heterodimer (Mus musculus, UniProt Q9QUN7); assay: P3C-induced cytokine mRNA expression in mouse macrophages; type: cell-based; settings: P3C 500 ng/ml, 1 h
T1 construct: endogenous in cells; host or cells: thioglycollate-elicited mouse peritoneal macrophages
T1 sequence (Q9QUN7 25-784, one chain of several): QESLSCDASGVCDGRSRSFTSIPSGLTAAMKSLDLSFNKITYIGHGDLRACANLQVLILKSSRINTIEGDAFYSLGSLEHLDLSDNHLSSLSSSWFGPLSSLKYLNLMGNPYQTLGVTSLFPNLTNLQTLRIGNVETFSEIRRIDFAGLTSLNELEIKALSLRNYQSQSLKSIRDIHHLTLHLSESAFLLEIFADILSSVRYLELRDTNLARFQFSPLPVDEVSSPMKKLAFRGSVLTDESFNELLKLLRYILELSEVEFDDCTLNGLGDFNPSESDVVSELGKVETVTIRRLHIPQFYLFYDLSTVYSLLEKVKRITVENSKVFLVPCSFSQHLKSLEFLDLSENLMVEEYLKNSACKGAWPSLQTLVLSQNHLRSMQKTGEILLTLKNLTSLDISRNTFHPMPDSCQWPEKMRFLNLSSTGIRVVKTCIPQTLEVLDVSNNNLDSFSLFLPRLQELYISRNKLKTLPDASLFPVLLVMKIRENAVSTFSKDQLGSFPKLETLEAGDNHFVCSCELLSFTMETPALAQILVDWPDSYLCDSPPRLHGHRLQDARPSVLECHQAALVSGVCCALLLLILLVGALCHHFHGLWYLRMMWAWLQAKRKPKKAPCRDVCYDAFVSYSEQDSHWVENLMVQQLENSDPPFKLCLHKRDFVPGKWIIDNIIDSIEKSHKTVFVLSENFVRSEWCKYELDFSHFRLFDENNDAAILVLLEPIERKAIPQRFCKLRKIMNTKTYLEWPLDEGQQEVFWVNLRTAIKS
Description: Total cellular RNA was isolated using Tripure from Roche (San Francisco, Calif.) following manufacture's protocol. RNA was then reverse transcribed using AMV Reverse Transcriptase from Promega (Madison, Wis.) with poly-T priming as per manufacturer's directions. cDNA was then quantified by real-time PCR using Applied Biosystems Fast SYBR Green PCR Master Mix and an ABI Prism 7500HT cycler. Primers used for detection: hypoxanthine phosphoribosyltransferase (HPRT) (forward: […] (SEQ ID NO:51), reverse: […] (SEQ ID NO:52)), TNFα (forward: […] (SEQ ID NO:53), reverse: […] (SEQ ID NO:54)), IL-1β (forward: […] (SEQ ID NO:55), reverse: […] (SEQ ID NO:56)), IFNβ (forward: […] (SEQ ID NO:57), reverse: CTCGGACCACCATCCAGG (SEQ ID NO:58)) and RANTES (forward: […] (SEQ ID NO:59), reverse: […] (SEQ ID NO:60)). The primers were designed using Primer Express 2.0 (Applied Biosystems). Using HPRT as reference, the ΔCt method was used to calculate relative gene expression. One-way ANOVA was preformed, as well as Dunnett's multiple comparison post hoc test with a p≦0.01 selected as the level of significance.
Protein-free Escherichia coli K235 LPS was used at final concentration of 10 ng/ml to stimulate cells. S-[2,3-bis(palmitoyloxy)-(2-RS)-propyl]-N-palmitoyl-(R)-Cys-Ser-Lys4-OH (P3C) and S-[2,3-bis(palmitoyloxy)-(2-RS)-propyl]-[R]-Cys-Ser-Lys4-OH (P2C) were purchased from EMC microcollections GmbH (Tubingen, Germany) and used for cell stimulation at 500 and 50 ng/ml, respectively. Phospho-ERK1/2 and phospho-JNK1/2 rabbit Abs were obtained from Cell Signaling Technology, Inc. β-actin rabbit Ab were from SantaCruz Biotechnology, Inc.
Because of the role TRAP plays in TLR2 signaling, TIRAP TIR-derived decoy peptide effects on TLR2-induced cytokine mRNA expression were examined. Thioglycollate-elicited mouse macrophages were stimulated either by P2C, an agonist that induces signaling through TLR2/TLR6 heterodimerization, or P3C, a TLR2/TLR1 agonist, and effects of TIRAP TR-derived decoy peptides on induction of cytokine mRNA were examined. […] To confirm the inhibitory effect of TR3 and TR6 on P3C-induced signaling, IL-6 and TNF-α concentration was measured in macrophage supernatants collected 5 h after stimulation of cells with P3C. […] Concordantly, both TR3 and TR6 diminished the P3C-induced ERK phosphorylation (FIG. 3D).
C57BL/6J mice were obtained from The Jackson Laboratory (BarHarbor, Me.). Harvesting, culturing, and stimulation of peritoneal macrophages were described in previous publications (1, 18, 19). Escherichia coli K235 LPS (34) was used at the final concentration of 100 ng/ml. The 2,3-bis(palmitoyloxy)-(2-RS)-propyl-N-palmitoyl-(R)-Cys-Ser-Lys4-OH (P3C) and S[2,3-bis(palmitoyloxy)-(2-RS)-propyl]-[R]-Cys-Ser-Lys4-OH (P2C) (EMC Microcollections, Tubingen, Germany) were used at 500 and 50 ng/ml, respectively. Oligonucleotide (ODN) 1668 and low m.w. polyinosinic-polycytidylic acid [poly(I:C)] in complex with LyoVec were obtained from InvivoGen; these agonists were used at 2.5 μM and 400 ng/ml, respectively.

MAPK (ERK, JNK, p38) = assay: MAPK activation by peptide alone, macrophages without TLR agonist; type: cell-based, mouse; settings: 20 μM peptide, 1 hour incubation
Description: Neither TIRAP peptide activated ERK in cells incubated without a TLR agonist (not shown). […] The mechanism of this differential MAPK activation by select peptides, although interesting, is not understood at this time. Peptides TR9 and TR11 inhibited both ERK and JNK MAPKs (FIG. 1D). Peptide-induced inhibition of ERK persisted over a long period of time.
We next examined whether TRAM peptides inhibit the TLR4-mediated p38, ERK, and JNK MAPK activation. Murine macrophages pretreated with peptides for 30 min were challenged with LPS. Cell lysates were collected 30 min post-stimulation and analyzed for MAPK phosphorylation by Western analysis. Consistent with peptide effects on steady-state mRNA, both TM4 and TM6 inhibited activation of all three MAPKs (FIG. 5C). The inhibition of MAPKs by TM4 or TM6 was long lasting; it persisted for at least 1 h after LPS stimulation (data not shown). To characterize further the effects of TRAM peptides on MAPKs, murine macrophages were treated with TRAM peptides, but not challenged by LPS.

TLR2/TLR1 heterodimer [2] = biological target: T1, TLR2/TLR1 heterodimer; assay: P3C-induced IL-6 and TNF-α secretion by macrophages (ELISA); type: cell-based; settings: supernatants 5 h after P3C 500 ng/ml
Description: FIG. 3. Effect of TIRAP decoy peptides on TLR2 signaling. Thioglycollate-elicited macrophages were incubated in the presence of 20 (black columns) or 40 μM (open columns) of a decoy peptide for 30 min prior to stimulation with P3C (500 ng/ml) (A and C) or P2C (50 ng/ml) (B). Cytokine mRNA expression was measured 1 h after TLR2 stimulation and is normalized to the expression of HPRT gene. C. IL-6 and TNF-α were measured by ELISA in macrophage supernatants collected 5 h after P3C (500 ng/ml) stimulation. D. Peptides TR3 and TR6 inhibit ERK activation induced by TLR2 agonist, P3C. ERK phosphorylation was measured by Western analysis in primary macrophage stimulated by P3C for 30 min.
Cytokine secretion was measured in supernatant samples collected at 6 or 24 h time points and stored at −80° C. Samples were analyzed by a multiplex assay at the University of Maryland Baltimore Cytokine Core Facility using a Luminex 100 reader and Softmax Pro software, or by ELISA kits for mouse IL-6 or TNF-α from BioLegend (San Diego, Calif.) and LT-4000 microplate reader.
Because of the role TRAP plays in TLR2 signaling, TIRAP TIR-derived decoy peptide effects on TLR2-induced cytokine mRNA expression were examined. […] To confirm the inhibitory effect of TR3 and TR6 on P3C-induced signaling, IL-6 and TNF-α concentration was measured in macrophage supernatants collected 5 h after stimulation of cells with P3C. […]

## RQIKIWFQNRRMKWKKEGSQASLRCF [TR3]
TLR2/TLR1 heterodimer [1]; 20 μM peptide
  P3C-induced TNFα and IL-1β mRNA: inhibited
TLR2/TLR1 heterodimer [1]; 40 μM peptide
  P3C-induced TNFα and IL-1β mRNA: profoundly inhibited
MAPK (ERK, JNK, p38)
  JNK activation in macrophages without TLR agonist: moderately activated
TLR2/TLR1 heterodimer [2]
  P3C-induced IL-6 and TNF-α secretion: profoundly inhibited

## RQIKIWFQNRRMKWKKPGFLRDPWCKYQML [TR6]
TLR2/TLR1 heterodimer [1]; 20 μM peptide
  P3C-induced TNFα and IL-1β mRNA: inhibited
TLR2/TLR1 heterodimer [1]; 40 μM peptide
  P3C-induced TNFα and IL-1β mRNA: profoundly inhibited
MAPK (ERK, JNK, p38)
  JNK activation in macrophages without TLR agonist: moderately activated
TLR2/TLR1 heterodimer [2]
  P3C-induced IL-6 and TNF-α secretion: profoundly inhibited
